Reference: US8716242B2, “β-hairpin peptidomimetics” (priority 2009, dated 2014)
Numbered stars: 1 amine (or outer) side, 2 acyl side, 3 side chain; on linkers, the order of the positions; unused ones are H or OH. Bridge positions count the residues as written; N and C are the ends. Square brackets hold non-standard residues; d marks the D form. Side chains are listed from the residue outwards. Peptide text beside a SMILES is read from it. * marks the point of attachment. γGlu = O=C(O)[C@H](CCC(=O)[*:2])N[*:1]; Palmitoyl = CCCCCCCCCCCCCCCC(=O)*; Myristoyl = CCCCCCCCCCCCCC(=O)*; Lauroyl = CCCCCCCCCCCC(=O)*; Dab = NCC[C@H](N)C(=O)O

What was measured:
[1] = Cytotoxicity, MTT reduction assay, COS-7 cells; type: cell-based; conditions: African green monkey, COS-7 cells (CRL-1651), 12.5-50 μM
Summary of the method: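 HELA (4000/well) and COS-7 (3400/well) cells were grown 24 h, then exposed 48 h at 37° C to peptides at 12.5, 25 and 50 μM in triplicate. MTT reduction read at 595 nm; growth % relative to time-zero, and GI50 interpolated by trend line.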

[2] = tested on: human red blood cells (hRBC); test: Hemolysis of human red blood cells; type: cell-based; conditions: 20% hRBC, 1 h, 37° C.
Summary of the method: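 Washed fresh human erythrocytes (20% v/v, ~0.9×10^9 cells/mL final) incubated with compound at 100 μM for 1 h at 37 °C with shaking. Supernatant OD540 read; % hemolysis expressed relative to 2.5% Triton X-100 lysis (100%), with PBS/0.001% acetic acid as 0%.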

[3] = Plasma stability in human plasma; type: in vitro ADME; conditions: human plasma, 37° C.; for remaining at 24 h, 10 μM: 1440 min, read-out: human pl. cpd left at 1440 min
Summary of the method: (§1)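 Peptides (1 mM DMSO/H2O stock) were spiked into human or mouse plasma in triplicate and incubated at 37 °C, sampling from 0 to 1440 min. Samples were quenched in formic acid/acetonitrile and analysed by LC/MS MRM. Remaining percent of t=0 was calculated and T1/2 derived by trend fitting.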

[4] = Plasma stability in mouse plasma; type: in vitro ADME; conditions: mouse plasma, 37° C.; for remaining at 24 h, 10 μM: 1440 min, read-out: mouse pl. cpd left at 1440 min
Summary of the method: as §1

SMILES | GI50 at 48 h [1] | Hemolysis at 100 μM [2] | remaining at 24 h, 10 μM [3] | human pl. T1/2 ([3]; up to 1440 min) | remaining at 24 h, 10 μM [4] | half-life at 10 μM ([4]; up to 1440 min, read-out: mouse pl. T1/2) | mouse pl. T1/2 ([4]; up to 1440 min) | half-life at 10 μM ([3]; up to 1440 min, read-out: human pl. T1/2)
CCCCCCCCCCCC(=O)NCCCC[C@@H]1NC(=O)[C@H](Cc2ccc(O)cc2)NC(=O)[C@@H]2CSSC[C@H](NC(=O)[C@H](C)NC(=O)[C@H](Cc3c[nH]cn3)NC(=O)[C@H](Cc3ccc(O)cc3)NC(=O)[C@@H]3CCCN3C(=O)[C@H]3CCCN3C(=O)[C@H](CCCCN)NC1=O)C(=O)N[C@@H](CCCNC(=N)N)C(=O)N[C@@H](C)C(=O)N1CCC[C@@H]1C(=O)N[C@@H](CCN)C(=O)N[C@@H](CCCNC(=N)N)C(=O)N[C@@H](Cc1ccc(O)cc1)C(=O)N2 [Ex. 17] (cyclo(YHACRA[dP][Dab]RYCYK(Lauroyl)K[dP]P); disulfide 4-11) | > 50 µM | 4.3% | 65% | 24 h | 59% | 19.5 h | – | –
CCCCCCCCCCCCCCCC(=O)NCCCC[C@@H]1NC(=O)[C@H](Cc2ccc(O)cc2)NC(=O)[C@@H]2CSSC[C@H](NC(=O)[C@H](Cc3ccc(O)cc3)NC(=O)[C@H](Cc3c[nH]cn3)NC(=O)[C@H](Cc3ccc(O)cc3)NC(=O)[C@@H]3CCCN3C(=O)[C@H]3CCCN3C(=O)[C@H](CCCCN)NC1=O)C(=O)N[C@@H](CO)C(=O)N[C@@H](C)C(=O)N1CCC[C@@H]1C(=O)N[C@@H](CCN)C(=O)N[C@@H](CCCNC(=N)N)C(=O)N[C@@H](Cc1ccc(O)cc1)C(=O)N2 [Ex. 20] (cyclo(YHYCSA[dP][Dab]RYCYK(Palmitoyl)K[dP]P); disulfide 4-11) | > 50 µM | 9.1% | 54% | 24 h | 83% | – | 24 h | –
CCCCCCCCCCCC(=O)N[C@@H](CCC(=O)NCCCC[C@@H]1NC(=O)[C@H](Cc2ccc(O)cc2)NC(=O)[C@@H]2CSSC[C@H](NC(=O)[C@H](Cc3ccc(O)cc3)NC(=O)[C@H](Cc3c[nH]cn3)NC(=O)[C@H](Cc3ccc(O)cc3)NC(=O)[C@@H]3CCCN3C(=O)[C@H]3CCCN3C(=O)[C@H](CCCCN)NC1=O)C(=O)N[C@@H](CO)C(=O)N[C@@H](C)C(=O)N1CCC[C@@H]1C(=O)N[C@@H](CCN)C(=O)N[C@@H](CCCNC(=N)N)C(=O)N[C@@H](Cc1ccc(O)cc1)C(=O)N2)C(=O)O [Ex. 25] (cyclo(YHYCSA[dP][Dab]RYCYK([γGlu-Lauroyl])K[dP]P); disulfide 4-11) | > 50 µM | 1.0% | 78% | 24 h | 74% | – | 24 h | –
CCCCCCCCCCCC(=O)N[C@@H](CCC(=O)NCCCC[C@@H]1NC(=O)[C@H](Cc2ccc(O)cc2)NC(=O)[C@@H]2CSSC[C@H](NC(=O)[C@H](C)NC(=O)[C@H](Cc3c[nH]cn3)NC(=O)[C@H](Cc3ccc(O)cc3)NC(=O)[C@@H]3CCCN3C(=O)[C@H]3CCCN3C(=O)[C@H](CCCCN)NC1=O)C(=O)N[C@@H](CCCNC(=N)N)C(=O)N[C@@H](C)C(=O)N1CCC[C@@H]1C(=O)N[C@@H](CCN)C(=O)N[C@@H](CCCNC(=N)N)C(=O)N[C@@H](Cc1ccc(O)cc1)C(=O)N2)C(=O)O [Ex. 26] (cyclo(YHACRA[dP][Dab]RYCYK([γGlu-Lauroyl])K[dP]P); disulfide 4-11) | > 50 µM | 1.2% | 82% | 24 h | 65% | – | 24 h | –
CCCCCCCCCCCCCC(=O)N[C@@H](CCC(=O)NCCCC[C@@H]1NC(=O)[C@H](Cc2ccc(O)cc2)NC(=O)[C@@H]2CSSC[C@H](NC(=O)[C@H](Cc3ccc(O)cc3)NC(=O)[C@H](Cc3c[nH]cn3)NC(=O)[C@H](Cc3ccc(O)cc3)NC(=O)[C@@H]3CCCN3C(=O)[C@H]3CCCN3C(=O)[C@H](CCCCN)NC1=O)C(=O)N[C@@H](CO)C(=O)N[C@@H](C)C(=O)N1CCC[C@@H]1C(=O)N[C@@H](CCN)C(=O)N[C@@H](CCCNC(=N)N)C(=O)N[C@@H](Cc1ccc(O)cc1)C(=O)N2)C(=O)O [Ex. 28] (cyclo(YHYCSA[dP][Dab]RYCYK([γGlu-Myristoyl])K[dP]P); disulfide 4-11) | > 50 µM | 1.9% | 80% | – | 78% | – | 24 h | 19.1 h
CCCCCCCCCCCCCCCC(=O)N[C@@H](CCC(=O)NCCCC[C@@H]1NC(=O)[C@H](Cc2ccc(O)cc2)NC(=O)[C@@H]2CSSC[C@H](NC(=O)[C@H](Cc3ccc(O)cc3)NC(=O)[C@H](Cc3c[nH]cn3)NC(=O)[C@H](Cc3ccc(O)cc3)NC(=O)[C@@H]3CCCN3C(=O)[C@H]3CCCN3C(=O)[C@H](CCCCN)NC1=O)C(=O)N[C@@H](CO)C(=O)N[C@@H](C)C(=O)N1CCC[C@@H]1C(=O)N[C@@H](CCN)C(=O)N[C@@H](CCCNC(=N)N)C(=O)N[C@@H](Cc1ccc(O)cc1)C(=O)N2)C(=O)O [Ex. 29] (cyclo(YHYCSA[dP][Dab]RYCYK([γGlu-Palmitoyl])K[dP]P); disulfide 4-11) | > 50 µM | 5.4% | 74% | 24 h | 53% | – | 24 h | –
